PMC12113356, “Novel Anti-MRSA Peptide from Mangrove-Derived Virgibacillus chiguensis FN33 Supported by Genomics and Molecular Dynamics” (Marine Drugs, 2025)
Peptide text beside a SMILES is read from it.

Columns and labels:
α-chymotrypsin = target: T1, α-chymotrypsin (Bos taurus, UniProt P00766); test: Stability to protease digestion (activity retention); type: in vitro ADME; settings: 32 µg/mL, α-chymotrypsin 1 mg/mL, agar well diffusion read-out vs MRSA strain 2468, % of untreated sample, mean ± SD, n = 3
T1 construct: purchased Sigma-Aldrich
Procedure: (§1) The AMP solution was prepared in sterile purified water and adjusted to a final concentration of 32 µg/mL. To determine thermal stability, the AMP was exposed to temperatures of 30, 40, 60, 80, and 100 °C, as well as to autoclaving at 121 °C and 15 psi for 15 and 30 min. The susceptibility of the AMP to enzymatic degradation was examined by treating it with proteinase K, trypsin, and α-chymotrypsin (each at 1 mg/mL, Sigma-Aldrich, Warren, MI, USA), representing different proteolytic mechanisms. The AMP’s compatibility with surfactants was assessed by incubating it with 1% SDS, 1% CTAB, and 1% Triton X-100 (AppliChem GmbH, Darmstadt, Germany). Additionally, the effect of pH variations on AMP integrity was tested by adjusting the solution to pH 1, 4, 8, 10, and 14. The pH was neutralized to the original pH after incubation before conducting antibacterial activity tests. […] Stability data were expressed as residual activity percentages relative to the untreated sample (mean ± SD), and statistical significance was evaluated using two-way ANOVA and Tukey’s post hoc test, with a p-value < 0.05 considered significant.

proteinase K = target: T2, proteinase K (Parengyodontium album, UniProt P06873); test: as above; type: in vitro ADME; settings: 32 µg/mL, proteinase K 1 mg/mL, agar well diffusion read-out vs MRSA strain 2468, % of untreated sample, mean ± SD, n = 3
T2 construct: purchased Sigma-Aldrich
Procedure: as §1

S. aureus TISTR 517 [1] = test: Time-kill assay; type: cell-based, Staphylococcus aureus; settings: for bacterial reduction rate: triplicate
Procedure: (§2) The time–kill assay of FN33 AMP was conducted by measuring bacterial viability (log CFU/mL) at different time points. […] In the untreated group, bacterial growth increased over time, with a growth rate of 0.292 log CFU/h for S. aureus TISTR 517 and 0.2884 log CFU/h for MRSA strain 2468. […] However, complete eradication of S. aureus TISTR 517 was not achieved at either concentration, even after 24 h of treatment. […] The bactericidal effect was confirmed by complete eradication within 20 h of treatment. […] The killing rate against MRSA strain 2468 was faster than that observed for S. aureus TISTR 517 at all concentrations.
(§3) Error bars represent the standard deviation of triplicate experiments.

MRSA strain 2468 [2] = test: Time-kill assay; type: cell-based, Staphylococcus aureus; settings: for bacterial reduction rate: triplicate
Procedure: as §2, §3

MRSA strain 2468 [3] = test: Stability to pH variation (activity retention by agar well diffusion); type: physicochemical, Staphylococcus aureus; settings: 32 µg/mL, neutralized before test, agar well diffusion read-out, % of untreated sample, mean ± SD, n = 3
Procedure: as §1

S. aureus TISTR 517 [4] = test: Sytox Green uptake assay (membrane permeabilization); type: cell-based, Staphylococcus aureus; settings: 10 µM Sytox Green, ex 504/em 523 nm, over 24 h
Procedure: (§4) The Sytox Green uptake assay was conducted to assess membrane permeabilization associated with loss of membrane integrity. The fluorescence would be detected from a Sytox Green–DNA complex. […] Triton X-100 (0.125–2%) and an untreated sample were used as positive and negative controls, respectively. Fluorescence intensities were recorded 5 min before sample addition across all groups to ensure cell integrity prior to the experiment. […] For MRSA strain 2468, fluorescence intensity was higher than the positive control at the time of sample addition and remained concentration-dependent.
(§5) The membrane permeabilization of bacterial cells was determined by the increase in fluorescence intensity caused by the Sytox Green–DNA complex. The fluorescence intensity was observed over time for 24 h. The inset graphs show the expanded view of the fluorescence baseline before sample addition and the fluorescence intensity during the initial 60 min after sample addition. The increase in fluorescence intensity over the entire treatment period was expressed as fold changes, comparing different sample concentrations to the untreated condition of S. aureus TISTR 517 (c) and MRSA strain 2468 (d).
(§6) The Sytox Green uptake assay was performed to evaluate the disruption of cell membrane integrity induced by the AMP [67]. An overnight culture (16 h) of MRSA strain 2468 was harvested and washed three times with sterile PBS (pH 7.4) supplemented with 0.2% CAMHB as a diluent. The cell suspension was then diluted with the same diluent until the OD at 625 nm was 0.1 (1 × 10^8 CFU/mL). An aliquot (100 µL) of the diluted cells was added to each well, followed by incubation with 10 µM Sytox Green (Thermo Fisher Scientific Inc., Waltham, MA, USA) in the dark for 15 min. […] Triton X-100 (AppliChem GmbH, Darmstadt, Germany) was used as a positive control and prepared at final concentrations ranging from 0.125% to 2%. These concentrations were used to compare the level of cell membrane permeability induced by the AMP. Membrane permeability was assessed by measuring fluorescence intensity using a microplate reader (Thermo Scientific Inc., Waltham, MA, USA) at excitation and emission wavelengths of 504 nm and 523 nm, respectively, over a 24 h period following AMP addition. Significant differences in fluorescence intensity (p-value < 0.05) were analyzed using two-way ANOVA and Tukey’s post hoc test for multiple comparisons between treated and untreated conditions.

MRSA strain 2468 [5] = test: as above; type: cell-based, Staphylococcus aureus; settings: 10 µM Sytox Green, ex 504/em 523 nm, over 24 h
Procedure: as §4, §5, §6

T2 sequence (P06873 106-384): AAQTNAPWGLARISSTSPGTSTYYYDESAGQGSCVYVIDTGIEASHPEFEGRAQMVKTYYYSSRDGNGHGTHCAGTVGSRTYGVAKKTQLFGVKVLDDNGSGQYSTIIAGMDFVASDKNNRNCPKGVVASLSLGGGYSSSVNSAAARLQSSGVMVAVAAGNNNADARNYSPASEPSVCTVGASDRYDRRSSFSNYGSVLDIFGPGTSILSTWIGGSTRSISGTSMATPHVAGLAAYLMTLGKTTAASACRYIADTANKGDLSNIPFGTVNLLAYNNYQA

CC(C)C[C@H](NC(=O)[C@H](CC(=O)O)NC(=O)[C@H](CS)NC(=O)[C@H](Cc1c[nH]cn1)NC(=O)[C@H](CS)NC(=O)[C@@H]1CCCN1C(=O)[C@@H](NC(=O)[C@H](CC(C)C)NC(=O)[C@H](CS)NC(=O)CNC(=O)[C@H](Cc1c[nH]c2ccccc12)NC(=O)[C@@H](NC(=O)[C@H](CC(=O)O)NC(=O)[C@@H](NC(=O)CNC(=O)[C@H](CS)NC(=O)CNC(=O)CNC(=O)[C@@H](N)CCC(=O)O)C(C)C)[C@@H](C)O)[C@@H](C)O)C(=O)N[C@@H](Cc1ccccc1)C(=O)N[C@@H](CS)C(=O)N[C@H](C(=O)N[C@H](C(=O)O)[C@@H](C)O)[C@@H](C)O [FN33 AMP] (H-EGGCGVDTWGCLTPCHCDLFCTT-OH)
Antibacterial Activity Retention of FN33 AMP (%) Against MRSA Strain 2468 (α-chymotrypsin; 1 h): 0.00 ± 0.00 %
Antibacterial Activity Retention of FN33 AMP (%) Against MRSA Strain 2468 (α-chymotrypsin; 6 h): 0.00 ± 0.00 %
Antibacterial Activity Retention of FN33 AMP (%) Against MRSA Strain 2468 (α-chymotrypsin; 12 h): 0.00 ± 0.00 %
Antibacterial Activity Retention of FN33 AMP (%) Against MRSA Strain 2468 (proteinase K; 1 h): 0.00 ± 0.00 %
Antibacterial Activity Retention of FN33 AMP (%) Against MRSA Strain 2468 (proteinase K; 6 h): 0.00 ± 0.00 %
Antibacterial Activity Retention of FN33 AMP (%) Against MRSA Strain 2468 (proteinase K; 12 h): 0.00 ± 0.00 %
bacterial reduction rate (S. aureus TISTR 517 [1]; 1× MIC, up to 24 h): 0.0496 log CFU/h
bacterial reduction rate (S. aureus TISTR 517 [1]; 2× MIC, up to 24 h): 0.1322 log CFU/h
time to complete eradication (S. aureus TISTR 517 [1]; 4× MIC): ≤ 20 h
bacterial reduction rate (S. aureus TISTR 517 [1]; 4× MIC): 0.2704 log CFU/h
bacterial reduction rate (MRSA strain 2468 [2]; 1× MIC): 0.1519 log CFU/h
time to eradication (no detectable bacterial counts) (MRSA strain 2468 [2]; 2× MIC): ≤ 20 h
bacterial reduction rate (MRSA strain 2468 [2]; 2× MIC): 0.2498 log CFU/h
time to eradication (no detectable bacterial counts) (MRSA strain 2468 [2]; 4× MIC): ≤ 12 h
bacterial reduction rate (MRSA strain 2468 [2]; 4× MIC): 0.4508 log CFU/h
Antibacterial Activity Retention of FN33 AMP (%) Against MRSA Strain 2468 (MRSA strain 2468 [3]; pH 1, 1 h): 74.56 ± 0.69 %
Antibacterial Activity Retention of FN33 AMP (%) Against MRSA Strain 2468 (MRSA strain 2468 [3]; pH 1, 6 h): 76.51 ± 0.39 %
Antibacterial Activity Retention of FN33 AMP (%) Against MRSA Strain 2468 (MRSA strain 2468 [3]; pH 1, 12 h): 72.85 ± 0.22 *^,† %
Antibacterial Activity Retention of FN33 AMP (%) Against MRSA Strain 2468 (MRSA strain 2468 [3]; pH 4, 1 h): 97.42 ± 0.65 %
Antibacterial Activity Retention of FN33 AMP (%) Against MRSA Strain 2468 (MRSA strain 2468 [3]; pH 4, 6 h): 96.19 ± 0.21 %
Antibacterial Activity Retention of FN33 AMP (%) Against MRSA Strain 2468 (MRSA strain 2468 [3]; pH 4, 12 h): 95.30 ± 0.69 *^,† %
Antibacterial Activity Retention of FN33 AMP (%) Against MRSA Strain 2468 (MRSA strain 2468 [3]; pH 8, 1 h): 99.53 ± 0.41%
Antibacterial Activity Retention of FN33 AMP (%) Against MRSA Strain 2468 (MRSA strain 2468 [3]; pH 8, 6 h): 98.03 ± 0.65%
Antibacterial Activity Retention of FN33 AMP (%) Against MRSA Strain 2468 (MRSA strain 2468 [3]; pH 8, 12 h): 98.76 ± 0.81%
Antibacterial Activity Retention of FN33 AMP (%) Against MRSA Strain 2468 (MRSA strain 2468 [3]; pH 10, 1 h): 74.63 ± 0.79 %
Antibacterial Activity Retention of FN33 AMP (%) Against MRSA Strain 2468 (MRSA strain 2468 [3]; pH 10, 6 h): 73.12 ± 1.04 *^,† %
Antibacterial Activity Retention of FN33 AMP (%) Against MRSA Strain 2468 (MRSA strain 2468 [3]; pH 10, 12 h): 69.46 ± 0.77 *^,† %
Antibacterial Activity Retention of FN33 AMP (%) Against MRSA Strain 2468 (MRSA strain 2468 [3]; pH 14, 1 h): 68.58 ± 0.45 %
Antibacterial Activity Retention of FN33 AMP (%) Against MRSA Strain 2468 (MRSA strain 2468 [3]; pH 14, 6 h): 66.80 ± 0.27 *^,† %
Antibacterial Activity Retention of FN33 AMP (%) Against MRSA Strain 2468 (MRSA strain 2468 [3]; pH 14, 12 h): 65.80 ± 0.84 *^,† %
average increase in fluorescence intensity vs untreated group (S. aureus TISTR 517 [4]; 0.25× MIC): 1.88 ± 0.83 fold
average increase in fluorescence intensity vs untreated group (S. aureus TISTR 517 [4]; 0.5× MIC): 1.89 ± 0.91 fold
average increase in fluorescence intensity vs untreated group (S. aureus TISTR 517 [4]; 1× MIC): 1.98 ± 0.92 fold
average increase in fluorescence intensity vs untreated group (S. aureus TISTR 517 [4]; 2× MIC): 3.54 ± 1.64 fold
average increase in fluorescence intensity vs untreated group (S. aureus TISTR 517 [4]; 4× MIC): 8.49 ± 4.31 fold
average fluorescence increase vs untreated group (MRSA strain 2468 [5]; 0.25× MIC): 5.87 ± 0.72 fold
average fluorescence increase vs untreated group (MRSA strain 2468 [5]; 0.5× MIC): 7.44 ± 0.77 fold
average fluorescence increase vs untreated group (MRSA strain 2468 [5]; 1× MIC): 7.91 ± 0.48 fold
average fluorescence increase vs untreated group (MRSA strain 2468 [5]; 2× MIC): 8.49 ± 0.25 fold
average fluorescence increase vs untreated group (MRSA strain 2468 [5]; 4× MIC): 9.13 ± 0.46 fold
